Results taken from patent US20260070945A1, “MACROCYCLIC IMMUNOMODULATORS” (Bristol-Myers Squibb Company, priority 2022, published 2026).
Where a SMILES comes first, the peptide text is derived from it. Bridges are numbered along the chain shown (N, C = ends). [ ]: non-standard residue; d: D form. The star is where a group is joined. ξ: configuration not given here. Phe(4-CONH2) = NC(=O)c1ccc(C[C@H](N)C(=O)O)cc1; Phe(4-COOH) = N[C@@H](Cc1ccc(C(=O)O)cc1)C(=O)O; Bip = N[C@@H](Cc1ccc(-c2ccccc2)cc1)C(=O)O; NH(CH2)14COOH = O=C(O)CCCCCCCCCCCCCCN*; Phe(3-Me) = Cc1cccc(C[C@H](N)C(=O)O)c1; Phe(4-F) = N[C@@H](Cc1ccc(F)cc1)C(=O)O; Val(3-OH) = CC(C)(O)[C@H](N)C(=O)O; 4Pal = N[C@@H](Cc1ccncc1)C(=O)O; Cha = N[C@@H](CC1CCCCC1)C(=O)O; Thr(3ξ) = CC(O)[C@H](N)C(=O)O; NMeNle = CCCC[C@H](NC)C(=O)O; Carboxymethyl = O=C(O)C*; NMeA = CN[C@@H](C)C(=O)O; Nle = CCCC[C@H](N)C(=O)O; Aun = NCCCCCCCCCCC(=O)O; Dab = NCC[C@H](N)C(=O)O; AEEA = NCCOCCOCC(=O)O

These compounds were tested against T1, PD-1/PD-L1 interaction (PE-labeled human PD-L1-Ig binding to Jurkat cell line over-expressing human PD-1) (Homo sapiens, UniProt Q15116) (assay: Jurkat-PD-1 Cell Binding High-Content Screening Assay (CBA)). Settings: PE-labeled PD-L1-Ig 20 nM final, Jurkat-hPD-1 cells; read-out: Jurkat HPD1 PDL1 IC50.
T1 construct: expressed in transfected cells; host or cells: Jurkat
T1 sequence (Q15116 25-288): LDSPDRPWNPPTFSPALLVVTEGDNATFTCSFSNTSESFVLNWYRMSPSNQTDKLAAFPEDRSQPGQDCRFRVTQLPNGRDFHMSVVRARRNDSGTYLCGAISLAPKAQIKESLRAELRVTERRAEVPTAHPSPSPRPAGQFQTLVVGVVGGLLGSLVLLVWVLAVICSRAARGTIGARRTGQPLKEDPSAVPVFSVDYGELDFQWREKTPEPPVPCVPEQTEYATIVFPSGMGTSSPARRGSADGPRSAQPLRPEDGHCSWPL
Procedure, shortened: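 In this imaging assay, cells in 10% FCS medium see compound for 2 h at 37 °C and then labeled ligand at 20 nM final for 1 h. Paraformaldehyde fixation, Hoechst 33342 staining and dPBS washes precede image capture.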

Row | Compound | IC50 [nM]
1 | Cc1cccc(C[C@@H]2NC(=O)[C@H](CC(=O)O)NC(=O)[C@H](Cc3ccc(C(=O)O)cc3)NC(=O)[C@H](Cc3ccncc3)NC(=O)CSC[C@@H](C(=O)N[C@@H](CCN)C(=O)NCCOCCOCC(=O)NCCCCCCCCCCC(=O)O)NC(=O)[C@H](C(C)O)NC(=O)[C@H](C(C)(C)O)NC(=O)[C@H](CC3CCCCC3)NC(=O)[C@H](CCN)NC(=O)[C@@H](CC(C)C)NC(=O)[C@H](C)N(C)C(=O)[C@H](CCC(=O)O)NC(=O)[C@H](Cc3ccc(-c4ccccc4)cc3)NC(=O)[C@H](Cc3ccc(C(N)=O)cc3)NC2=O)c1 (stereo partly drawn) [Example 2540] ({CH2CO}-[4Pal][Phe(4-COOH)]D[Phe(3-Me)][Phe(4-CONH2)][Bip]E[NMeA][dL][Dab][Cha][Val(3-OH)][Thr(3ξ)]C[Dab][AEEA][Aun]-OH; thioether N-14) | 9
2 | Cc1cccc(C[C@@H]2NC(=O)[C@H](CC(=O)O)NC(=O)[C@H](Cc3ccc(C(=O)O)cc3)NC(=O)[C@H](Cc3ccc(F)cc3)NC(=O)CSC[C@@H](C(=O)N[C@@H](CCN)C(=O)NCCOCCOCC(=O)NCCOCCOCC(=O)NCCCCCCCCCCC(=O)O)NC(=O)[C@H](CCC(=O)O)NC(=O)[C@H](C(C)C)NC(=O)[C@H](CC3CCCCC3)NC(=O)[C@H](CCN)NC(=O)[C@@H](CC(C)C)NC(=O)[C@H](C)N(C)C(=O)[C@H](Cc3ccc(C(=O)O)cc3)NC(=O)[C@H](Cc3ccc(-c4ccccc4)cc3)NC(=O)[C@H](Cc3ccc(C(=O)O)cc3)NC2=O)c1 [Example 2542] ({CH2CO}-[Phe(4-F)][Phe(4-COOH)]D[Phe(3-Me)][Phe(4-COOH)][Bip][Phe(4-COOH)][NMeA][dL][Dab][Cha]VEC[Dab][AEEA][AEEA][Aun]-OH; thioether N-14) | 2.4
3 | CCCC[C@H]1C(=O)N[C@@H](Cc2ccc(C(=O)O)cc2)C(=O)N[C@@H](CC(=O)O)C(=O)N[C@@H](Cc2cccc(C)c2)C(=O)N[C@@H](Cc2ccc(C(=O)O)cc2)C(=O)N[C@@H](Cc2ccc(-c3ccccc3)cc2)C(=O)N[C@@H](Cc2ccc(C(=O)O)cc2)C(=O)N(C)[C@@H](C)C(=O)N[C@H](CC(C)C)C(=O)N[C@@H](CCN)C(=O)N[C@@H](CC2CCCCC2)C(=O)N[C@@H](C(C)C)C(=O)N[C@@H](CCC(=O)O)C(=O)N[C@H](C(=O)N[C@@H](CCN)C(=O)NCCOCCOCC(=O)NCCCCCCCCCCC(=O)O)CSCC(=O)N1C [Example 2543] ({CH2CO}-[NMeNle][Phe(4-COOH)]D[Phe(3-Me)][Phe(4-COOH)][Bip][Phe(4-COOH)][NMeA][dL][Dab][Cha]VEC[Dab][AEEA][Aun]-OH; thioether N-14) | 32
4 | Cc1cccc(C[C@@H]2NC(=O)[C@H](CC(=O)O)NC(=O)[C@H](Cc3ccc(C(=O)O)cc3)NC(=O)[C@H](C(C)O)NC(=O)CSC[C@@H](C(=O)N[C@@H](CCN)C(=O)NCCOCCOCC(=O)NCCCCCCCCCCC(=O)O)NC(=O)[C@H](Cc3cnc[nH]3)NC(=O)[C@H](C(C)(C)O)NC(=O)[C@H](CC3CCCCC3)NC(=O)[C@H](CCN)NC(=O)[C@@H](CC(C)C)NC(=O)[C@H](C)N(C)C(=O)[C@H](Cc3ccc(C(=O)O)cc3)NC(=O)[C@H](Cc3ccc(-c4ccccc4)cc3)NC(=O)[C@H](Cc3ccc(C(=O)O)cc3)NC2=O)c1 (stereo partly drawn) [Example 2545] ({CH2CO}-[Thr(3ξ)][Phe(4-COOH)]D[Phe(3-Me)][Phe(4-COOH)][Bip][Phe(4-COOH)][NMeA][dL][Dab][Cha][Val(3-OH)]HC[Dab][AEEA][Aun]-OH; thioether N-14) | 13.1
5 | Cc1cccc(C[C@@H]2NC(=O)[C@H](CC(=O)O)NC(=O)[C@H](Cc3ccc(C(=O)O)cc3)NC(=O)[C@H](CCN)NC(=O)CSC[C@@H](C(=O)N[C@@H](CCN)C(=O)NCCOCCOCC(=O)NCCCCCCCCCCC(=O)O)NC(=O)[C@H](CCC(=O)O)NC(=O)[C@H](C(C)C)NC(=O)[C@H](CC3CCCCC3)NC(=O)[C@H](CCN)NC(=O)[C@@H](CC(C)C)NC(=O)[C@H](C)N(C)C(=O)[C@H](Cc3ccc(C(=O)O)cc3)NC(=O)[C@H](Cc3ccc(-c4ccccc4)cc3)NC(=O)[C@H](Cc3ccc(C(=O)O)cc3)NC2=O)c1 [Example 2546] ({CH2CO}-[Dab][Phe(4-COOH)]D[Phe(3-Me)][Phe(4-COOH)][Bip][Phe(4-COOH)][NMeA][dL][Dab][Cha]VEC[Dab][AEEA][Aun]-OH; thioether N-14) | 11.7
6 | Cc1cccc(C[C@@H]2NC(=O)[C@H](CC(=O)O)NC(=O)[C@H](Cc3ccc(C(=O)O)cc3)NC(=O)[C@H](Cc3ccc(F)cc3)NC(=O)CSC[C@@H](C(=O)N[C@@H](CCN)C(=O)NCCOCCOCC(=O)NCCCCCCCCCCC(=O)O)NC(=O)[C@H](CCC(=O)O)NC(=O)[C@H](C(C)C)NC(=O)[C@H](CC3CCCCC3)NC(=O)[C@H](CCN)NC(=O)[C@@H](CC(C)C)NC(=O)[C@H](C)N(C)C(=O)[C@H](Cc3ccc(C(=O)O)cc3)NC(=O)[C@H](Cc3ccc(-c4ccccc4)cc3)NC(=O)[C@H](Cc3ccc(C(=O)O)cc3)NC2=O)c1 [Example 2548] ({CH2CO}-[Phe(4-F)][Phe(4-COOH)]D[Phe(3-Me)][Phe(4-COOH)][Bip][Phe(4-COOH)][NMeA][dL][Dab][Cha]VEC[Dab][AEEA][Aun]-OH; thioether N-14) | 19.6
7 | CCCC[C@@H]1NC(=O)CSC[C@@H](C(=O)N[C@@H](CCN)C(=O)NCCOCCOCC(=O)NCCCCCCCCCCC(=O)O)NC(=O)[C@H](CCC(=O)O)NC(=O)[C@H](C(C)C)NC(=O)[C@H](CC2CCCCC2)NC(=O)[C@H](CCN)NC(=O)[C@@H](CC(C)C)NC(=O)[C@H](C)N(C)C(=O)[C@H](Cc2ccc(C(=O)O)cc2)NC(=O)[C@H](Cc2ccc(-c3ccccc3)cc2)NC(=O)[C@H](Cc2ccc(C(=O)O)cc2)NC(=O)[C@H](Cc2cccc(C)c2)NC(=O)[C@H](CC(=O)O)NC(=O)[C@H](Cc2ccc(C(=O)O)cc2)NC1=O [Example 2549] ({CH2CO}-[Nle][Phe(4-COOH)]D[Phe(3-Me)][Phe(4-COOH)][Bip][Phe(4-COOH)][NMeA][dL][Dab][Cha]VEC[Dab][AEEA][Aun]-OH; thioether N-14) | 5.4
8 | Cc1cccc(C[C@@H]2NC(=O)[C@H](CC(=O)O)NC(=O)[C@H](Cc3ccc(C(=O)O)cc3)NC(=O)[C@H](CCN)NC(=O)CSC[C@@H](C(=O)N[C@@H](CCN)C(=O)NCCOCCOCC(=O)NCCCCCCCCCCC(=O)O)NC(=O)[C@H](Cc3cnc[nH]3)NC(=O)[C@H](C(C)O)NC(=O)[C@H](CC3CCCCC3)NC(=O)[C@H](CCN)NC(=O)[C@@H](CC(C)C)NC(=O)[C@H](C)N(C)C(=O)[C@H](Cc3ccc(C(=O)O)cc3)NC(=O)[C@H](Cc3ccc(-c4ccccc4)cc3)NC(=O)[C@H](Cc3ccc(C(=O)O)cc3)NC2=O)c1 (stereo partly drawn) [Example 2550] ({CH2CO}-[Dab][Phe(4-COOH)]D[Phe(3-Me)][Phe(4-COOH)][Bip][Phe(4-COOH)][NMeA][dL][Dab][Cha][Thr(3ξ)]HC[Dab][AEEA][Aun]-OH; thioether N-14) | 2.8

Further lines, results first:

Row | IC50 [nM] | Compound
9 | 17.1 | Cc1cccc(C[C@@H]2NC(=O)[C@H](CC(=O)O)NC(=O)[C@H](Cc3ccc(OCC(=O)O)cc3)NC(=O)[C@H](C(C)O)NC(=O)CSC[C@@H](C(=O)N[C@@H](CCN)C(=O)NCCOCCOCC(=O)NCCOCCOCC(=O)NCCCCCCCCCCC(=O)O)NC(=O)[C@H](CCC(=O)O)NC(=O)[C@H](C(C)(C)O)NC(=O)[C@H](CC3CCCCC3)NC(=O)[C@H](CCN)NC(=O)[C@@H](CC(C)C)NC(=O)[C@H](C)N(C)C(=O)[C@H](Cc3ccc(C(=O)O)cc3)NC(=O)[C@H](Cc3ccc(-c4ccccc4)cc3)NC(=O)[C@H](Cc3ccc(C(=O)O)cc3)NC2=O)c1 (stereo partly drawn) [Example 2537] ({CH2CO}-[Thr(3ξ)]Y(Carboxymethyl)D[Phe(3-Me)][Phe(4-COOH)][Bip][Phe(4-COOH)][NMeA][dL][Dab][Cha][Val(3-OH)]EC[Dab][AEEA][AEEA][Aun]-OH; thioether N-14)
10 | 12.4 | Cc1cccc(C[C@@H]2NC(=O)[C@H](CC(=O)O)NC(=O)[C@H](Cc3ccc(C(=O)O)cc3)NC(=O)[C@H](C(C)O)NC(=O)CSC[C@@H](C(=O)N[C@@H](CCN)C(=O)NCCOCCOCC(=O)NCCOCCOCC(=O)NCCCCCCCCCCC(=O)O)NC(=O)[C@H](CCC(=O)O)NC(=O)[C@H](C(C)C)NC(=O)[C@H](CC3CCCCC3)NC(=O)[C@H](CCN)NC(=O)[C@@H](CC(C)C)NC(=O)[C@H](C)N(C)C(=O)[C@H](Cc3ccc(C(=O)O)cc3)NC(=O)[C@H](Cc3ccc(-c4ccccc4)cc3)NC(=O)[C@H](Cc3ccc(C(=O)O)cc3)NC2=O)c1 (stereo partly drawn) [Example 2538] ({CH2CO}-[Thr(3ξ)][Phe(4-COOH)]D[Phe(3-Me)][Phe(4-COOH)][Bip][Phe(4-COOH)][NMeA][dL][Dab][Cha]VEC[Dab][AEEA][AEEA][Aun]-OH; thioether N-14)
11 | 350 | Cc1cccc(C[C@@H]2NC(=O)[C@H](CC(=O)O)NC(=O)[C@H](Cc3ccc(C(=O)O)cc3)NC(=O)[C@H](C(C)O)NC(=O)CSC[C@@H](C(=O)N[C@@H](CCN)C(=O)NCCOCCOCC(=O)NCCOCCOCC(=O)NCCOCCOCC(=O)NCCCCCCCCCCCCCCC(=O)O)NC(=O)[C@H](CCC(=O)O)NC(=O)[C@H](C(C)C)NC(=O)[C@H](CC3CCCCC3)NC(=O)[C@H](CCN)NC(=O)[C@@H](CC(C)C)NC(=O)[C@H](C)N(C)C(=O)[C@H](Cc3ccc(C(=O)O)cc3)NC(=O)[C@H](Cc3ccc(-c4ccccc4)cc3)NC(=O)[C@H](Cc3ccc(C(=O)O)cc3)NC2=O)c1 (stereo partly drawn) [Example 2539] ({CH2CO}-[Thr(3ξ)][Phe(4-COOH)]D[Phe(3-Me)][Phe(4-COOH)][Bip][Phe(4-COOH)][NMeA][dL][Dab][Cha]VEC[Dab][AEEA][AEEA][AEEA]-{NH(CH2)14COOH}; thioether N-14)
12 | 14.9 | Cc1cccc(C[C@@H]2NC(=O)[C@H](CC(=O)O)NC(=O)[C@H](Cc3ccc(C(=O)O)cc3)NC(=O)[C@H](C(C)O)NC(=O)CSC[C@@H](C(=O)N[C@@H](CCN)C(=O)NCCOCCOCC(=O)NCCCCCCCCCCC(=O)O)NC(=O)[C@H](CCC(=O)O)NC(=O)[C@H](C(C)C)NC(=O)[C@H](CC3CCCCC3)NC(=O)[C@H](CCN)NC(=O)[C@@H](CC(C)C)NC(=O)[C@H](C)N(C)C(=O)[C@H](Cc3ccc(C(=O)O)cc3)NC(=O)[C@H](Cc3ccc(-c4ccccc4)cc3)NC(=O)[C@H](Cc3ccc(C(=O)O)cc3)NC2=O)c1 (stereo partly drawn) [Example 2547] ({CH2CO}-[Thr(3ξ)][Phe(4-COOH)]D[Phe(3-Me)][Phe(4-COOH)][Bip][Phe(4-COOH)][NMeA][dL][Dab][Cha]VEC[Dab][AEEA][Aun]-OH; thioether N-14)
